In ChEMBL document CHEMBL1201862, “PubChem BioAssay data set” (2004):
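Test compounds were applied to cells in 96-well plates for 48 hours at 5 doses. GI50: concentration for 50% inhibition of growth.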 Calls of active or inactive are those of the source. Rule as the data show it: active = GI50 up to about 1.1 µM and inactive = higher.

Columns and labels:
Assay in all cases: NCI tumour cell line growth inhibition, 48 h
[1] = tested on: LXFL 529
[2] = tested on: OVCAR-8
[3] = tested on: NCI-H522
[4] = tested on: RXF 393
[5] = tested on: SF-295
[6] = tested on: 786-0
[7] = tested on: SF-268
[8] = tested on: RXF 631
[9] = tested on: HT-29
[10] = tested on: SK-OV-3
[11] = tested on: KM12
[12] = tested on: U-251
[13] = tested on: M19-MEL
[14] = tested on: SW-620
[15] = tested on: SK-MEL-28
[16] = tested on: SN12C
[17] = tested on: UO-31
[18] = tested on: K562
[19] = tested on: Malme-3M
[20] = tested on: NCI-H226
[21] = tested on: KM-20L2
[22] = tested on: NCI-H23
[23] = tested on: SF-539
[24] = tested on: HOP-18
[25] = tested on: IGROV-1
[26] = tested on: SK-MEL-2
[27] = tested on: SNB-75
[28] = tested on: COLO 205
[29] = tested on: UACC-62
[30] = tested on: MOLT-4
[31] = tested on: A549
[32] = tested on: OVCAR-5
[33] = tested on: HCC 2998
[34] = tested on: OVCAR-4
[35] = tested on: CAKI-1
[36] = tested on: DMS-273
[37] = tested on: HOP-92
[38] = tested on: TK-10
[39] = tested on: HOP-62
[40] = tested on: DMS-114
[41] = tested on: ACHN
[42] = tested on: CCRF-CEM
[43] = tested on: LOX IMVI
[44] = tested on: NCI-H460
[45] = tested on: SK-MEL-5
[46] = tested on: HCT-116
[47] = tested on: HL-60
[48] = tested on: RPMI-8226
[49] = tested on: SR
[50] = tested on: PC-3
[51] = tested on: SNB-19
[52] = tested on: UACC-257
[53] = tested on: HCT-15
[54] = tested on: MCF7
[55] = tested on: Hs-578T
[56] = tested on: T47D
[57] = tested on: XF498
[58] = tested on: BT-549
[59] = tested on: M14
[60] = tested on: MDA-N
[61] = tested on: NCI/ADR-RES
[62] = tested on: A498
[63] = tested on: MDA-MB-231
[64] = tested on: DU-145
[65] = tested on: OVCAR-3
[66] = tested on: MDA-MB-435
[67] = tested on: SNB-78
[68] = tested on: EKVX
[69] = tested on: DLD-1

Compound: COc1cc([C@@H]2c3cc4c(cc3[C@@H](OC(=O)c3ccccc3)C3COC(=O)[C@@H]32)OCO4)cc(OC)c1O (stereo partly specified)
- GI50 [1]: < 10 nM (active)
- GI50 [2]: < 10 nM (active)
- GI50 [3]: < 10 nM (active)
- GI50 [4]: 10.1 nM (active)
- GI50 [5]: < 10 nM (active)
- GI50 [6]: 25.4 nM (active)
- GI50 [7]: 28.9 nM (active)
- GI50 [8]: < 10 nM (active)
- GI50 [9]: < 10 nM (active)
- GI50 [10]: < 10 nM (active)
- GI50 [11]: < 10 nM (active)
- GI50 [12]: 14.3 nM (active)
- GI50 [13]: < 10 nM (active)
- GI50 [14]: < 10 nM (active)
- GI50 [15]: < 10 nM (active)
- GI50 [16]: 28.6 nM (active)
- GI50 [17]: 132 nM (active)
- GI50 [18]: < 10 nM (active)
- GI50 [19]: < 10 nM (active)
- GI50 [20]: < 10 nM (active)
- GI50 [21]: 12.8 nM (active)
- GI50 [22]: 14.8 nM (active)
- GI50 [23]: < 10 nM (active)
- GI50 [24]: > 100000 nM (inactive)
- GI50 [25]: 12.3 nM (active)
- GI50 [26]: 10.4 nM (active)
- GI50 [27]: < 10 nM (active)
- GI50 [28]: 148 nM (active)
- GI50 [29]: < 10 nM (active)
- GI50 [30]: 41.3 nM (active)
- GI50 [31]: 13.2 nM (active)
- GI50 [32]: 68900 nM (inactive)
- GI50 [33]: 34.5 nM (active)
- GI50 [34]: 25900 nM (inactive)
- GI50 [35]: < 10 nM (active)
- GI50 [36]: < 10 nM (active)
- GI50 [37]: < 10 nM (active)
- GI50 [38]: 38900 nM (inactive)
- GI50 [39]: 20.8 nM (active)
- GI50 [40]: < 10 nM (active)
- GI50 [41]: < 10 nM (active)
- GI50 [42]: 30.4 nM (active)
- GI50 [43]: < 10 nM (active)
- GI50 [44]: 12.9 nM (active)
- GI50 [45]: < 10 nM (active)
- GI50 [46]: < 10 nM (active)
- GI50 [47]: < 10 nM (active)
- GI50 [48]: 12 nM (active)

Compound: CN(C)CCNc1ccc2nnn3c4ccccc4c(=O)c1c23
- GI50 [1]: 3600 nM (inactive)
- GI50 [2]: 2210 nM (inactive)
- GI50 [3]: 2640 nM (inactive)
- GI50 [4]: 5510 nM (inactive)
- GI50 [5]: 3570 nM (inactive)
- GI50 [6]: 3270 nM (inactive)
- GI50 [49]: 2340 nM (inactive)
- GI50 [7]: 4220 nM (inactive)
- GI50 [8]: 1810 nM (inactive)
- GI50 [9]: 2010 nM (inactive)
- GI50 [10]: 7870 nM (inactive)
- GI50 [11]: 3850 nM (inactive)
- GI50 [12]: 1950 nM (inactive)
- GI50 [13]: 2860 nM (inactive)
- GI50 [50]: 2410 nM (inactive)
- GI50 [14]: 1590 nM (inactive)
- GI50 [51]: 4560 nM (inactive)
- GI50 [15]: 4990 nM (inactive)
- GI50 [52]: 3460 nM (inactive)
- GI50 [16]: 2960 nM (inactive)
- GI50 [53]: 3250 nM
- GI50 [54]: 4320 nM (inactive)
- GI50 [17]: 1320 nM (inactive)
- GI50 [18]: 2860 nM (inactive)
- GI50 [19]: 3010 nM (inactive)
- GI50 [55]: 3300 nM (inactive)
- GI50 [56]: 6000 nM (inactive)
- GI50 [20]: 1740 nM (inactive)
- GI50 [57]: 6380 nM (inactive)
- GI50 [58]: 13200 nM (inactive)
- GI50 [59]: 3070 nM (inactive)
- GI50 [21]: 2680 nM (inactive)
- GI50 [60]: 2810 nM (inactive)
- GI50 [22]: 3910 nM (inactive)
- GI50 [23]: 4750 nM (inactive)
- GI50 [25]: 3380 nM (inactive)
- GI50 [61]: 2400 nM (inactive)
- GI50 [62]: 2590 nM (inactive)
- GI50 [26]: 3700 nM (inactive)
- GI50 [27]: 2550 nM (inactive)
- GI50 [28]: 1340 nM (inactive)
- GI50 [29]: 3390 nM (inactive)
- GI50 [30]: 1270 nM (inactive)
- GI50 [31]: 2260 nM (inactive)
- GI50 [63]: 3690 nM (inactive)
- GI50 [64]: 3910 nM (inactive)
- GI50 [65]: 3360 nM (inactive)
- GI50 [32]: 3720 nM (inactive)
- GI50 [33]: 7130 nM (inactive)
- GI50 [34]: 3080 nM (inactive)
- GI50 [35]: 2500 nM (inactive)
- GI50 [36]: 3200 nM (inactive)
- GI50 [66]: 3440 nM (inactive)
- GI50 [37]: 2480 nM (inactive)
- GI50 [38]: 3310 nM (inactive)
- GI50 [67]: 6340 nM (inactive)
- GI50 [39]: 3720 nM (inactive)
- GI50 [40]: 4070 nM (inactive)
- GI50 [41]: 1220 nM (inactive)
- GI50 [42]: 2270 nM (inactive)
- GI50 [68]: 3780 nM (inactive)
- GI50 [43]: 1620 nM (inactive)
- GI50 [44]: 2250 nM (inactive)
- GI50 [45]: 2150 nM (inactive)
- GI50 [46]: 1560 nM (inactive)
- GI50 [69]: 3610 nM (inactive)
- GI50 [47]: 3440 nM (inactive)
- GI50 [48]: 2920 nM (inactive)
